Data as given in paper PMC10386709, “Preparation of Alcohol Dehydrogenase–Zinc Phosphate Hybrid Nanoflowers through Biomimetic Mineralization and Its Application in the Inhibitor Screening” (Molecules, 2023).
Each block holds one molecule with its values, some of them ahead of it.

Tests used:
[1] = molecular target: T1, Alcohol dehydrogenase (ADH) (Saccharomyces cerevisiae, UniProt P00330); experiment: NADH absorbance at […] nm, immobilized ADH nanoflowers, % inhibition at […] (weak); format: biochemical
T1 construct: gene ADH1
T1 sequence (P00330 2-348): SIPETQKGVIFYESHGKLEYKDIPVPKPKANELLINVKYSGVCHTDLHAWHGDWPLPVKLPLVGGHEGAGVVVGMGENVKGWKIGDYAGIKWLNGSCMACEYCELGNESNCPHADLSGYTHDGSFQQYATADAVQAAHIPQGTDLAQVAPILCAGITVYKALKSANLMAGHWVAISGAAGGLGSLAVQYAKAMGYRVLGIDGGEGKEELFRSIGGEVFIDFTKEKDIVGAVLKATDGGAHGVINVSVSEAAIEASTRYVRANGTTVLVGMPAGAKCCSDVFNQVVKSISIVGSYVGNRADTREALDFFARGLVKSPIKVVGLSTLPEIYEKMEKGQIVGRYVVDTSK

[2] = molecular target: T1, Alcohol dehydrogenase (ADH); experiment: NADH absorbance at […] nm, immobilized ADH nanoflowers, % inhibition at […]; format: biochemical
[3] = molecular target: T1, Alcohol dehydrogenase (ADH); experiment: NADH absorbance at […] nm, dose-response; free ADH (IC50 […] on immobilized ADH HNFs); format: biochemical
purified protein = substrate: NC(=O)c1ccc[n+]([C@@H]2O[C@H](COP(=O)([O-])OP(=O)(O)OC[C@H]3O[C@@H](n4cnc5c(N)ncnc54)[C@H](O)[C@@H]3O)[C@@H](O)[C@H]2O)c1; experiment: purified protein; format: biochemical, Saccharomyces cerevisiae; details: Zn2+

Molecule: Oc1cc(O)c2c(c1)O[C@H](c1ccc(O)c(O)c1)[C@@H](O)C2 [Cianidanol]
- inhibition at 1500 µM [1]: 34.9 ± 4%

- inhibition at 1500 µM ([2]; read-out: Inhibition (%)): 52.5 ± 5.5%
Molecule: O=c1cc(-c2ccc(O)cc2)oc2cc(O)cc(O)c12 [apigenin]

- inhibition at 1500 µM ([2]; read-out: Inhibition (%)): 58.2 ± 10.3%
Molecule: O=c1oc2c(O)c(O)cc3c(=O)oc4c(O)c(O)cc1c4c23 [ellagic acid]

- inhibition at 1500 µM ([2]; read-out: Inhibition (%)): 61.9 ± 2.8%
Molecule: O=C(O)c1cc(O)c(O)c(O)c1 [gallic acid]

Molecule: O=C1C[C@@H](c2ccc(O)cc2)Oc2cc(O)cc(O)c21 [naringenin]
- inhibition at 1500 µM [2]: 75.5 ± 2.1%

Molecule: COc1cc(C(=O)O)ccc1O [vanillic acid]
- inhibition at 1500 µM [2]: 55.1 ± 1%

Molecule: CNC(=C[N+](=O)[O-])NCCSCc1ccc(CN(C)C)o1 [ranitidine]
- IC50 [3]: 390 µM

Molecule: O=C(O)c1ccc(O)c(O)c1 [protocatechuic acid]
- inhibition at 1500 µM [2]: 68.3 ± 2.9%

B1: Alcohol dehydrogenase (ADH) (Saccharomyces cerevisiae S288C) (protein)
chain: T1 sequence (P00330 2-348)
- Km (purified protein): 5.33 mM
